In the assay the target is MALT1 (Homo sapiens (Human), UniProt Q9UDY8). Nature of the assay: MALT1 enzymatic activity inhibition (fluorescence, Ac-LRSR-AMC substrate). The assay is classed as biochemical. The note with it: recombinant MALT1 1.5 ng/μl, Ac-LRSR-AMC 1 μM. The essentials:
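Recombinant human MALT1 (1.5 ng/μl final) preincubated 10 min at rt with compounds in 50 mM HEPES pH 7.2-7.4, 100 mM NaCl, 900 mM sodium citrate, 10 mM DTT; 1 μM Ac-LRSR-AMC then added. AMC fluorescence read at start and after 30 min 37 °C plus 30 min rt; difference gives signal, % inhibition fitted to IC50.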

Sequence of MALT1 (Q9UDY8 whole entry): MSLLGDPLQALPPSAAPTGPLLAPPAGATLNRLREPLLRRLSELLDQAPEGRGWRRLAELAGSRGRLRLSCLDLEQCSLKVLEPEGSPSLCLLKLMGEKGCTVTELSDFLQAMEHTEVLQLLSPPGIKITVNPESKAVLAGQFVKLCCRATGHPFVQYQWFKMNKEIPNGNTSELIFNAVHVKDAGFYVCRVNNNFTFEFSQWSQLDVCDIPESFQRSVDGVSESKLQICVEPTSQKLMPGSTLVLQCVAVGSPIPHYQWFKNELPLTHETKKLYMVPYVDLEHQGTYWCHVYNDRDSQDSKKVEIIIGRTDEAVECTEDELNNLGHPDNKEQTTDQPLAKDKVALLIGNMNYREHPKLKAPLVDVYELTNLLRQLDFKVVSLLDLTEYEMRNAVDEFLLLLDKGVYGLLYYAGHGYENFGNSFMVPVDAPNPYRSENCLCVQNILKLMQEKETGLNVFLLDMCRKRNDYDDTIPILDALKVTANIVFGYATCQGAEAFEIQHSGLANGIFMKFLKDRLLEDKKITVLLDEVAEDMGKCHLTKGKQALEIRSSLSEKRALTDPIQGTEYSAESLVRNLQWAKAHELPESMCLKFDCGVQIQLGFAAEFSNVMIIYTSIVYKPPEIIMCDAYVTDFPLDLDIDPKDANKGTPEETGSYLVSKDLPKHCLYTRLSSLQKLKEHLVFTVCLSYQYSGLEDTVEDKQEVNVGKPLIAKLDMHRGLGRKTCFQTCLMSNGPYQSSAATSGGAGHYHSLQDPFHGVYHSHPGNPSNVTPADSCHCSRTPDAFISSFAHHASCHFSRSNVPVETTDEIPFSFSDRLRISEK

In the case of `O=C(CCOCCOCCN1CCN(c2ccc3c(c2)CN(C2CCC(=O)NC2=O)C3=O)CC1)NCCNC(=O)C1CCCN1C(=O)Nc1cnc2ccnn2c1C1CCCC1` (centres unmarked) [Compound 48, N1-(7-cyclopentylpyrazolo[1,5-a]pyrimidin-6-yl)-N2-[2-[3-[2-[2-[4-[2-(2,6-dioxo-3-piperidyl)-1-oxo-isoindolin-5-yl]piperazin-1-yl]ethoxy]ethoxy]propanoylamino]ethyl]pyrrolidine-1,2-dicarboxamide], the EC50 (commonly the midpoint of the concentration-response curve) is greater than 5 µM.

As for `Cc1cc2ncc(NC(=O)Nc3cnc(-c4noc(CCCCCC(=O)N5CCN(c6ccc7c(c6)CN(C6CCC(=O)NC6=O)C7=O)CC5)n4)c(C)c3)c(C3CCCO3)n2n1` (centres unmarked) [Compound 67, 1-[6-[5-[6-[4-[2-(2,6-dioxo-3-piperidyl)-1-oxo-isoindolin-5-yl]piperazin-1-yl]-6-oxo-hexyl]-1,2,4-oxadiazol-3-yl]-5-methyl-3-pyridyl]-3-(2-methyl-7-tetrahydrofuran-2-yl-pyrazolo[1,5-a]pyrimidin-6-yl)urea], the EC50 was no more than 0.2 µM.

Take `Cc1cc(NC(=O)Nc2cnc3ccnn3c2C2CCCCC2)cnc1-c1noc(CCCCCN2CCN(c3ccc4c(c3)CN(C3CCC(=O)NC3=O)C4=O)CC2)n1` (centres unmarked) [Compound 132, 1-(7-cyclohexylpyrazolo[1,5-a]pyrimidin-6-yl)-3-[6-[5-[5-[4-[2-(2,6-dioxo-3-piperidyl)-1-oxo-isoindolin-5-yl]piperazin-1-yl]pentyl]-1,2,4-oxadiazol-3-yl]-5-methyl-3-pyridyl]urea]: the EC50 was 0.2 to 0.5 µM.

On to `O=C(CCOCCN1CCN(c2ccc3c(c2)CN(C2CCC(=O)NC2=O)C3=O)CC1)NCCNC(=O)C1CCCN1C(=O)Nc1cnc2ccnn2c1C1CCCC1` (centres unmarked) [Compound 45, N1-(7-cyclopentylpyrazolo[1,5-a]pyrimidin-6-yl)-N2-[2-[3-[2-[4-[2-(2,6-dioxo-3-piperidyl)-1-oxo-isoindolin-5-yl]piperazin-1-yl]ethoxy]propanoylamino]ethyl]pyrrolidine-1,2-dicarboxamide], for which the half-maximal effective concentration (EC50) was greater than 5 µM.

In the case of `Cc1cc(NC(=O)Nc2cnc3ccnn3c2C(C)C)cnc1-c1noc(CCCCCC(=O)N2CCN(c3ccc4c(c3)CN(C3CCC(=O)N(C)C3=O)C4=O)CC2)n1` (centres unmarked) [Compound 146, 1-(7-isopropylpyrazolo[1,5-a]pyrimidin-6-yl)-3-[5-methyl-6-[5-[6-[4-[2-(1-methyl-2,6-dioxo-3-piperidyl)-1-oxo-isoindolin-5-yl]piperazin-1-yl]-6-oxo-hexyl]-1,2,4-oxadiazol-3-yl]-3-pyridyl]urea], the EC50 was no more than 0.2 µM.

Turning to `O=C(CCOCCN1CCN(c2ccc3c(c2)CN(C2CCC(=O)NC2=O)C3=O)CC1)NCCOc1ccc(Cl)cc1NC(=O)Nc1cnc2ccnn2c1C1CCCC1` (centres unmarked) [Compound 43, N-[2-[4-chloro-2-[(7-cyclopentylpyrazolo[1,5-a]pyrimidin-6-yl)carbamoylamino]phenoxy]ethyl]-3-[2-[4-[2-(2,6-dioxo-3-piperidyl)-1-oxo-isoindolin-5-yl]piperazin-1-yl]ethoxy]propanamide], the EC50 is 1 to 5 µM.

As for `Cc1cc(NC(=O)Nc2cnc3ccnn3c2C2CCCO2)cnc1-c1noc(CCCC(=O)N2CCN(c3ccc4c(c3)CN(C3CCC(=O)NC3=O)C4=O)CC2)n1` (centres unmarked) [Compound 58, 1-[6-[5-[4-[4-[2-(2,6-dioxo-3-piperidyl)-1-oxo-isoindolin-5-yl]piperazin-1-yl]-4-oxo-butyl]-1,2,4-oxadiazol-3-yl]-5-methyl-3-pyridyl]-3-(7-tetrahydrofuran-2-ylpyrazolo[1,5-a]pyrimidin-6-yl)urea], the EC50 is no more than 0.2 µM.

For the compound `Cc1cc(-c2noc(CCCCC(=O)N3CCN(c4ccc5c(c4)CN(C4CCC(=O)NC4=O)C5=O)CC3)n2)ncc1NC(=O)Nc1cnc2ccnn2c1C1CCCC1` (centres unmarked) [Compound 94, 1-(7-cyclopentylpyrazolo[1,5-a]pyrimidin-6-yl)-3-[6-[5-[5-[4-[2-(2,6-dioxo-3-piperidyl)-1-oxo-isoindolin-5-yl]piperazin-1-yl]-5-oxo-pentyl]-1,2,4-oxadiazol-3-yl]-4-methyl-3-pyridyl]urea], the EC50 was greater than 5 µM.

Take `Cc1cc(NC(=O)Nc2cnc3ccnn3c2C2CCCC2)cnc1-c1nnc(CCCCCC(=O)N2CCN(c3ccc4c(c3)CN(C3CCC(=O)NC3=O)C4=O)CC2)o1` (centres unmarked) [Compound 5, 1-(7-cyclopentylpyrazolo[1,5-a]pyrimidin-6-yl)-3-[6-[5-[6-[4-[2-(2,6-dioxo-3-piperidyl)-1-oxo-isoindolin-5-yl]piperazin-1-yl]-6-oxo-hexyl]-1,3,4-oxadiazol-2-yl]-5-methyl-3-pyridyl]urea]: the EC50 was no more than 0.2 µM.

For the compound `Cc1cc(NC(=O)Nc2cnc3ccnn3c2C(C)C)cnc1-c1nnc(CCCCCC(=O)N2CCN(c3ccc4c(c3)CN(C3CCC(=O)NC3=O)C4=O)CC2)s1` (centres unmarked) [Compound 153, 1-[6-[5-[6-[4-[2-(2,6-dioxo-3-piperidyl)-1-oxo-isoindolin-5-yl]piperazin-1-yl]-6-oxo-hexyl]-1,3,4-thiadiazol-2-yl]-5-methyl-3-pyridyl]-3-(7-isopropylpyrazolo[1,5-a]pyrimidin-6-yl)urea], the EC50 lay in the range of 0.2 to 0.5 µM.

Turning to `O=C(CCOCCOCCN1CCN(c2ccc3c(c2)CN(C2CCC(=O)NC2=O)C3=O)CC1)NCCOc1ncc(Cl)cc1NC(=O)Nc1cnc2ccnn2c1C1CCOCC1` (centres unmarked) [Compound 41, N-[2-[[5-chloro-3-[(7-tetrahydropyran-4-ylpyrazolo[1,5-a]pyrimidin-6-yl)carbamoylamino]-2-pyridyl]oxy]ethyl]-3-[2-[2-[4-[2-(2,6-dioxo-3-piperidyl)-1-oxo-isoindolin-5-yl]piperazin-1-yl]ethoxy]ethoxy]propanamide], the EC50 is 0.5 to 1 µM.

Take `Cc1cc(NC(=O)Nc2cnc3ccnn3c2C(C)C)cnc1-c1noc(CCCC(=O)N2CCN(c3ccc4c(c3)CN(C3CCC(=O)N(C)C3=O)C4=O)CC2)n1` (centres unmarked) [Compound 144, 1-(7-isopropylpyrazolo[1,5-a]pyrimidin-6-yl)-3-[5-methyl-6-[5-[4-[4-[2-(1-methyl-2,6-dioxo-3-piperidyl)-1-oxo-isoindolin-5-yl]piperazin-1-yl]-4-oxo-butyl]-1,2,4-oxadiazol-3-yl]-3-pyridyl]urea]: the EC50 is no more than 0.2 µM.

With `O=C1CCC(N2Cc3cc(N4CCN(CCCCc5nc(-c6ncc(NC(=O)Nc7cnc8ccnn8c7C7CCCC7)cc6F)no5)CC4)ccc3C2=O)C(=O)N1` (centres unmarked) [Compound 105, 1-(7-cyclopentylpyrazolo[1,5-a]pyrimidin-6-yl)-3-[6-[5-[4-[4-[2-(2,6-dioxo-3-piperidyl)-1-oxo-isoindolin-5-yl]piperazin-1-yl]butyl]-1,2,4-oxadiazol-3-yl]-5-fluoro-3-pyridyl]urea], the EC50 lay in the range of 0.2 to 0.5 µM.

On to `Cc1cc(NC(=O)Nc2cnc3ccnn3c2C2CCCO2)cnc1N1CCN(C(=O)CCOCCOCCN2CCN(c3ccc4c(c3)CN(C3CCC(=O)NC3=O)C4=O)CC2)CC1` (centres unmarked) [Compound 31, 1-[6-[4-[3-[2-[2-[4-[2-(2,6-dioxo-3-piperidyl)-1-oxo-isoindolin-5-yl]piperazin-1-yl]ethoxy]ethoxy]propanoyl]piperazin-1-yl]-5-methyl-3-pyridyl]-3-(7-tetrahydrofuran-2-ylpyrazolo[1,5-a]pyrimidin-6-yl)urea], for which the EC50 was greater than 5 µM.

In the case of `O=C(CCOCCN1CCN(c2ccc3c(c2)CN(C2CCC(=O)NC2=O)C3=O)CC1)NCCOc1ncc(Cl)cc1NC(=O)Nc1cnc2ccnn2c1C1CCOC1` (centres unmarked) [Compound 39, N-[2-[[5-chloro-3-[(7-tetrahydrofuran-3-ylpyrazolo[1,5-a]pyrimidin-6-yl)carbamoylamino]-2-pyridyl]oxy]ethyl]-3-[2-[4-[2-(2,6-dioxo-3-piperidyl)-1-oxo-isoindolin-5-yl]piperazin-1-yl]ethoxy]propanamide], the EC50 is 0.5 to 1 µM.

Regarding `O=C1CCC(N2Cc3cc(N4CCN(CCCCCc5nc(-c6ncc(NC(=O)Nc7cnc8ccnn8c7C7CCCC7)cc6F)no5)CC4)ccc3C2=O)C(=O)N1` (centres unmarked) [Compound 97, 1-(7-cyclopentylpyrazolo[1,5-a]pyrimidin-6-yl)-3-[6-[5-[5-[4-[2-(2,6-dioxo-3-piperidyl)-1-oxo-isoindolin-5-yl]piperazin-1-yl]pentyl]-1,2,4-oxadiazol-3-yl]-5-fluoro-3-pyridyl]urea], the EC50 was no more than 0.2 µM.

Consider `Cc1cc2ncc(NC(=O)Nc3cnc(-c4noc(CCCCC(=O)N5CCN(c6ccc7c(c6)CN(C6CCC(=O)NC6=O)C7=O)CC5)n4)c(C)c3)c(C3CCCC3)n2n1` (centres unmarked) [Compound 59, 1-(7-cyclopentyl-2-methyl-pyrazolo[1,5-a]pyrimidin-6-yl)-3-[6-[5-[5-[4-[2-(2,6-dioxo-3-piperidyl)-1-oxo-isoindolin-5-yl]piperazin-1-yl]-5-oxo-pentyl]-1,2,4-oxadiazol-3-yl]-5-methyl-3-pyridyl]urea], for which the EC50 was no more than 0.2 µM.

As to `CC(C)c1c(NC(=O)Nc2cnc(-c3noc(CCCCC(=O)N4CCN(c5ccc6c(c5)CN(C5CCC(=O)NC5=O)C6=O)CC4)n3)c(Cl)c2)cnc2ccnn12` (centres unmarked) [Compound 139, 1-[5-chloro-6-[5-[5-[4-[2-(2,6-dioxo-3-piperidyl)-1-oxo-isoindolin-5-yl]piperazin-1-yl]-5-oxo-pentyl]-1,2,4-oxadiazol-3-yl]-3-pyridyl]-3-(7-isopropylpyrazolo[1,5-a]pyrimidin-6-yl)urea], the EC50 was no more than 0.2 µM.

Turning to `Cc1cc(NC(=O)Nc2cnc3ccnn3c2C2CCCO2)cnc1-c1noc(CCCN2CCN(c3ccc4c(c3)CN(C3CCC(=O)NC3=O)C4=O)CC2)n1` (centres unmarked) [Compound 62, 1-[6-[5-[3-[4-[2-(2,6-dioxo-3-piperidyl)-1-oxo-isoindolin-5-yl]piperazin-1-yl]propyl]-1,2,4-oxadiazol-3-yl]-5-methyl-3-pyridyl]-3-(7-tetrahydrofuran-2-ylpyrazolo[1,5-a]pyrimidin-6-yl)urea], the EC50 was no more than 0.2 µM.

`Cc1cc(NC(=O)Nc2cnc3ccnn3c2C2CCCC2)cnc1-c1noc(CCCCCC(=O)N2CCN(c3ccc4c(c3)CN(C3CCC(=O)NC3=O)C4=O)CC2)n1` (centres unmarked) [Compound 4, 1-(7-cyclopentylpyrazolo[1,5-a]pyrimidin-6-yl)-3-[6-[5-[6-[4-[2-(2,6-dioxo-3-piperidyl)-1-oxo-isoindolin-5-yl]piperazin-1-yl]-6-oxo-hexyl]-1,2,4-oxadiazol-3-yl]-5-methyl-3-pyridyl]urea]: the EC50 is 0.2 to 0.5 µM.

(Values after patent US20250163066A1, “PROTACs of MALT1” (TEGID THERAPEUTICS, INC., priority 2022, published 2025).)
